Patent US20220401459A1, “NEW APPLICATION OF CHEMOKINE RECEPTOR CCR6 INHIBITOR IN PREVENTING RECURRENCE OF PSORIASIS” (RUIJIN HOSPITAL, SHANGHAI JIAOTONG UNIVERSITY SCHOOL OF …, priority 2019, published 2022)
“Also recorded” adds a separate entry of the source.

Experiments:
[1] = tested on: imiquimod (IMQ)-induced mouse psoriasis model; assay: Imiquimod (IMQ)-induced mouse psoriasis model: GC treatment, withdrawal, re-induced recurrence; type: in vivo; conditions: for proportion of γδT17 (IL-17-secreting) cells in lymph nodes: after drug administration was stopped (2 weeks); for recurrence of psoriasis: psoriasis re-induced with IMQ after withdrawal
Description: (§1) In this example, an animal model to simulate clinical GC treatment for psoriasis was established (FIG. 2a). An imiquimod (IMQ)-induced mouse psoriasis model was utilized to simulate the whole clinical process of topical glucocorticoid treatment in patients with psoriasis: administering of drug—stop administering—recurrence of disease.
(§2) All mice were smeared with IMQ for three weeks. Among them, from the 6th day, GC or petrolatum (Vas) was applied to the skin of the mice, and all treatments were stopped on the 21st day. Mice entered a 2-week drug withdrawal period, after which IMQ was applied again for 7 consecutive days to induce psoriasis recurrence.
In order to simulate the clinical withdrawal period, all mice in the experimental group and the control group were rested for 2 weeks without treatment.
In this example, IMQ was applied to the mice in the experimental group and the control group again to simulate the recurrence of psoriasis after clinical withdrawal.

[2] = tested on: imiquimod (IMQ)-induced mouse psoriasis model; assay: as above; type: in vivo; conditions: imiquimod replaced by mannan for inducing recurrence
[3] = tested on: wild-type mice (WT), CCR6−/−, and CCR2−/− mice; assay: GC treatment and IMQ re-challenge in WT, CCR6−/− and CCR2−/− mice; type: in vivo, mouse
Description: as §1, §2
Cytokine receptors CCR6 and CCR2 are known to mediate the migration of γδT17 cells in the occurrence of skin inflammation. In this example, the above-mentioned mechanism was studied in wild-type mice (WT), CCR6^−/−, and CCR2^−/− mice.

[4] = tested on: patients with psoriasis vulgaris; assay: Psoriasis vulgaris patients, topical GC for 2 weeks, then stopped until relapse (flow cytometry, RNA-seq); type: in vivo, human
Experimental: In this example, patients with psoriasis vulgaris were recruited and glucocorticoids (GC) were topically (externally) administered for 2 weeks of treatment. Thereafter, the administration were stopped until the disease relapsed, and further research on the mechanism of psoriasis recurrence was carried out.
Transcriptome sequencing (RNA-seq) was performed on the skin lesions of these patients before GC treatment, after GC treatment, and after disease recurrence.
In this example, in psoriasis patients receiving GC treatment, the changes in the proportion of CD3+ T cells and T17 cells in the skin and peripheral blood before treatment, after treatment and during recurrence were detected.

[5] = CCR6−/− mice, after GC treatment
[6] = CCR6−/− mice, re-challenge with IMQ
[7] = after treatment and during recurrence
[8] = before, after treatment and during recurrence
[9] = 2 weeks after withdrawal, vs control group
[10] = TCRd−/− mice, IMQ re-challenge, GC vs Vas

CCCCCCCCc1ccc(CCC(N)(CO)CO)cc1 [FTY720]
migration of γδT17 cells from the draining lymph nodes ([1]; GC group, recurrence): prevented | rapid recurrence of psoriasis ([1]; mice in the GC group given FTY720): did not appear rapid recurrence

C[C@@H]1C[C@H]2[C@@H]3C[C@H](F)C4=CC(=O)C(Cl)=C[C@]4(C)[C@@]3(F)[C@@H](O)C[C@]2(C)[C@@]1(O)C(=O)CO [halometasone]
rapid disease recurrence [2]: no longer had rapid disease recurrence | proportion of γδT17 cells in lymph nodes ([3]; CCR6 KO mice, recurrence after GC treatment): did not show a decrease | redistribution of γδT17 cells in vivo ([3]; CCR6 knockout mice): did not affect | ear thickness vs corresponding control [3, 5]: no significant difference | increased levels of IL-17 secreted by γδT, Vγ4, Vγ4Vδ4 cells in draining and distant sites [3, 5]: not observed | proportion of γδT cells in lymph nodes ([3]; CCR6−/− mice, after treatment): did not show an increase | disease recurrence [3, 6]: significantly suppressed | levels of IL-17 secreted by dermal γδT, Vγ4, Vγ4Vδ4 cells vs corresponding control group [3, 6]: significantly lower | proportions of γδT17, Vγ4T17, Vγ4Vδ4T17 cells in draining and distant lymph nodes (decrease) [3, 6]: not | disease recurrence ([3]; WT and CCR2 mice, re-challenge with IMQ): faster disease recurrence | ear thickness vs corresponding controls ([3]; WT and CCR2−/− mice, after GC treatment): significantly lower | levels of IL-17 secreted by CD3, γδT, Vγ4, Vγ4Vδ4 cells in the skin vs corresponding control group ([3]; WT and CCR2−/− mice, re-challenge with IMQ): no significant difference | proportions of γδT17, Vγ4T17, Vγ4Vδ4T17 cells in draining and distant lymph nodes ([3]; WT mice, re-challenge with IMQ): decreased | ear thickness ([3]; WT, CCR6−/− and CCR2−/− mice (three strains), after GC treatment): reduced | levels of IL-17 secreted by CD3, γδT, Vγ4, Vγ4Vδ4 cells in the skin ([3]; three strains of mice, after GC treatment): all reduced | expression of chemokines CCL20, CCL5, CCL2, CXCL10 in skin lesions (RNA-seq) [4, 7]: decreased after treatment and increased during recurrence | expression of psoriasis-related genes (IL-17, IL-23) in skin lesions [4, 7]: decreased after treatment, but increased during recurrence | expression of psoriasis-related genes (IL-17, IL-23) in skin lesions ([4]; after treatment and during recurrence, listed as GC): down-regulated | proportion of IL-17-producing T cells (T17 cells) in skin lesions [4, 8]: decreased after treatment and increased during recurrence | proportion of IL-17-producing cells (T17 cells) in peripheral blood [4, 8]: increased after treatment and decreased during recurrence | proportion of IL-17-producing T cells (T17 cells) in skin lesions ([4]; before, after treatment and during recurrence, listed as GC): decreased | control of psoriasis ([4]; topical treatment): quickly and effectively control psoriasis | proportions of γδT, Vγ4, Vγ4Vδ4 cells in draining and distant lymph nodes ([1]; 2 weeks after withdrawal): remained unchanged or slightly increased | neutrophils infiltrated in the skin ([1]; 2 weeks after withdrawal, vs Vas control group): more neutrophils were infiltrated | proportion of γδT17 in the skin [1, 9]: also lower | proportions of CD3, γδT, Vγ4Vδ4 in the skin [1, 9]: still lower | levels of IL-17 secreted by CD3 and γδT cells in the skin ([1]; IMQ re-challenge, GC vs Vas): not significantly different | proportions of CD3 and γδT cells in the skin ([1]; IMQ re-challenge, GC vs Vas): not significantly different | proportions of IL-17 secreted by γδT, Vγ4, Vγ4Vδ4 cells in distant lymph nodes ([1]; IMQ re-challenge, GC vs Vas): significantly lower | proportions of Vγ4T17 and Vγ4Vδ4T17 cells in the skin ([1]; IMQ re-challenge, GC vs Vas): slightly decreased | γδT17 in skin draining lymph nodes ([1]; IMQ re-challenge, GC vs Vas): no difference | infiltrated neutrophils in the skin ([1]; IMQ re-challenge, vs Vas control group): exceeded | epidermal thickening fold ([1]; IMQ re-challenge, vs Vas group): also higher | neutrophils infiltrated in the skin ([1]; TCRd−/− mice, 2 weeks after withdrawal, GC vs Vas): no difference | ear / epidermal thickening [1, 10]: no difference | infiltrated neutrophils in the skin [1, 10]: opposite results | neutrophil infiltration in the skin ([1]; TCRd−/− mice, after treatment, experimental vs control group): no statistical difference | proportion of γδT17 cells in lymph nodes after stimulation ([1]; after drug administration was stopped): still significantly increased | proportion of γδT17 (IL-17-secreting) cells in lymph nodes [1]: still significantly increased | proportion of γδT17 (IL-17-secreting) cells in lymph nodes ([1]; listed as GC): significantly increased | IL-17 secretion by Vγ4 cells and Vγ4Vδ4 cells in draining lymph nodes ([1]; after treatment): secreted more IL-17 | dermal γδT cells, especially Vγ4Vδ4 cells, in the skin ([1]; after treatment): significantly reduced | proportion of CD3+ T cells in the skin ([1]; after treatment): significantly reduced | proportion of IL-17 secretion of γδT, Vγ4, Vγ4Vδ4 cells in distal lymph nodes ([1]; after treatment): also higher | proportion of Vγ4 cells in skin-draining lymph nodes ([1]; after treatment): increased | proportion of γδT17 cells in draining and distal lymph nodes ([1]; after treatment): significantly increased | proportion of γδT cells in skin-draining lymph nodes ([1]; after treatment): decreased | proportions of IL1R expression in γδT, Vγ4, Vγ4Vδ4 cells in the skin ([1]; after treatment): all increased | proportions of γδT, Vγ4, Vγ4Vδ4 T cells in distal lymph nodes ([1]; after treatment): higher | neutrophil infiltration in the skin ([1]; after treatment, immunofluorescence and flow staining): reduced | proportion of IL-17 secretion of γδT, Vγ4, Vγ4Vδ4 cells in distal lymph nodes ([1]; after treatment, listed as GC): all increased | proportion of γδT17 cells in draining and distal lymph nodes ([1]; after treatment, listed as GC): increased in draining and distant lymph nodes | proportions of CD3, γδ, Vγ4, Vγ4Vδ4 that secreted IL-17 (γδT17) in the skin ([1]; after treatment, listed as GC): reduced; also recorded: decreased in the skin | proportions of γδT, Vγ4, Vγ4Vδ4 T cells in distal lymph nodes ([1]; after treatment, listed as GC): all increased | ear thickening speed ([1]; after using IMQ again for 3 days, vs control group): faster | ear thickness ([1]; day 21, vs control group (Vas)): significantly thinner | proportion of γδT17 cells in draining and distal lymph nodes ([1]; psoriasis re-induced with IMQ): significant decrease | recurrence of psoriasis [1]: relapsed rapidly | recurrence of psoriasis ([1]; listed as GC): more severe disease recurrence | proportion of Vγ4 and Vγ4Vδ4 T cells in the skin ([1]; psoriasis re-induced with IMQ, GC group vs Vas): higher | proportions of γδT, Vγ4, Vγ4Vδ4 cells in lymph nodes ([1]; psoriasis re-induced with IMQ, GC group vs Vas, listed as GC): varied slightly or did not change; also recorded: mild or no change | proportion of γδT17 cells in draining and distal lymph nodes ([1]; psoriasis re-induced with IMQ, listed as GC): indistinguishable or even lower | symptoms of skin psoriasis ([1]; topical treatment of ear skin inflammation): significantly relieved
